In PMC6848382, “Characterization of the Bioactivity and Mechanism of Bactenecin Derivatives Against Food-Pathogens” (Frontiers in Microbiology, 2019):
No end group written: not given here.

Assays:
Escherichia coli UB1005 = type: cell-based; conditions: UB1005, 24 h
Procedure: (§1) The antimicrobial activity of each peptide against food-pathogens was characterized by the minimum inhibitory concentration (MIC) ([Ma et al., 2013]). A logarithmic growth-phase culture of bacteria (1 × 10^6 CFU/mL) was mixed with peptide solutions (final concentration ranging from 0 μM to 256 μM) in 96-well plates. After the 96-well plates were incubated for 24 h at 37°C, optical dispersion (OD) was measured using a microplate reader (Bio-Rad, ıHercules, CA, United States) at 630 nm. […] The broth with bacteria cells was used as the negative control, and un-inoculated broth was used as a positive control. The tests were performed in triplicate using three replicates for each experiment.

[1] = system: Staphylococcus aureus ATCC25923; type: cell-based; conditions: ATCC25923, 24 h
Procedure: as §1

[2] = system: Staphylococcus aureus CMCC26074; type: cell-based; conditions: CMCC26074, 24 h
Procedure: as §1

EA. hy 926 cells = assay: Cytotoxicity (CCK-8); type: cell-based, human; conditions: CCK-8, 24 h; peptide concentration 128 μM
Procedure: The cytotoxicity of the peptides was tested on the EA. hy 926 cell line by using the Cell Counting Kit-8 (CCK-8, Dojindo, Japan) as described in a previous study ([Sánchez-Gómez et al., 2015]). The EA. Hy 926 cells cultured in the logarithmic growth -phase was then diluted with PBS to a single cell suspension. A 100 μL cell suspension (2 × 10^5 cells) was added to 96-well plates and cultured in an incubator with a 5% CO2 atmosphere at 37°C. The cell culture medium was removed, and the two-fold serial dilutions of peptides prepared using DMEM with 5% FBS were added to the 96-well plates. After 24 h, 100 μL DMEM with 10% CCK-8 was added to the 96-well plates and then cultured for 4 h. The absorbance was measured at 492 nm by using a microplate reader. DMEM served as a positive control and cells mixed with DMEM without peptides as a negative control. Melittin was employed as a control peptide.

[3] = system: Cronobacter sakazakii ATCC29544; type: cell-based; conditions: ATCC29544, 24 h
Procedure: as §1

[4] = system: Salmonella typhimurium ATCC14028; type: cell-based; conditions: ATCC14028, 24 h
Procedure: as §1

[5] = system: Salmonella pullorum C79-13; type: cell-based; conditions: 24 h
Procedure: as §1

[6] = system: Listeria monocytogenes CMCC54004; type: cell-based; conditions: CMCC54004, 24 h
Procedure: as §1

Bacillus cereus CMCC6303 = type: cell-based; conditions: CMCC6303, 24 h
Procedure: as §1

[7] = system: Salmonella enteric-subspenterica CMCC47020; conditions: 1 × 10^6 CFU/mL, 24 h, 37°C, triplicate
Procedure: as §1

[8] = system: Escherichia coli ATCC25922; type: cell-based
Procedure: To evaluate the effect of different physiological conditions on the stability of peptides, we determined the salt stability, thermal stability, and enzymatic stability as described in a previous study ([Dong, 2013]; [Sun et al., 2018]). Escherichia coli ATCC25922 grown in the logarithmic phase (1 × 10^6 CFU/mL) was exposed to each peptide at different salt concentrations (150 mM NaCl, 4.5 mM KCl, 6 μM NH4Cl, 1 mM MgCl2, 8 μM ZnCl2, 2 mM CaCl2, and 4 μM FeCl3). The peptides were treated for 1 h at 100°C to test for thermal stability. The peptides were treated with trypsin, pepsin, papain and protease k at a concentration of 1 mg/mL for 1 h at 37°C to test for enzyme stability. The control group consisted of untreated peptides. The subsequent assay was consistent with the MIC assay.

[9] = system: Salmonella enteric-subspenterica CMCC50071; conditions: 1 × 10^6 CFU/mL, 24 h, 37°C, triplicate
Procedure: as §1

[10] = system: Salmonella typhimurium C77-31; type: cell-based; conditions: murium C77-31, 24 h
Procedure: as §1

[11] = system: 12 typical food-pathogens; conditions: over the 12 food-pathogens of Table 3
Procedure: as §1
The selectivity index (SI), calculated as the ratio of MHC to GM, was used a comparison parameter for the safety and efficacy of peptides.

[12] = system: Escherichia coli ATCC25922; type: cell-based; conditions: ATCC25922, 24 h
Procedure: as §1

RWRRIVVIRVRR-NH2 [W2R3V10R11]
MIC (Escherichia coli UB1005): 16 µM | MIC [1]: 256 µM | MIC [2]: 64 µM | EA. hy 926 cell viability (EA. hy 926 cells): 80% | MIC [3]: 16 µM | MIC [4]: 32 µM | MIC [5]: 32 µM | MIC [6]: 2 µM | MIC (Bacillus cereus CMCC6303): 64 µM | MIC [7]: 128 µM | MIC, Heat ([8]; ATCC25922, 1 h): 4 µM | MIC, Papain ([8]; ATCC25922, 1 h): 2 µM | MIC, Pepsin ([8]; ATCC25922, 1 h): 32 µM | MIC, Proteinase k ([8]; ATCC25922, 1 h): 8 µM | MIC, Trypsin ([8]; ATCC25922, 1 h): >256 µM | MIC, CaCl2 ([8]; ATCC25922, 24 h): 8 µM | MIC, Control ([8]; ATCC25922, 24 h): 2 µM | MIC, KCl ([8]; ATCC25922, 24 h): 2 µM | MIC, MgCl2 ([8]; ATCC25922, 24 h): 4 µM | MIC, NH4Cl ([8]; ATCC25922, 24 h): 2 µM | MIC, NaCl ([8]; ATCC25922, 24 h): 4 µM | MIC [9]: 8 µM | MIC [10]: 32 µM | GM (geometric mean of MICs) [11]: 24.0 µM | MIC [12]: 2 µM
